From DBAASP come the findings set out here.

Test systems include Bacillus subtilis; Escherichia coli; Pseudomonas aeruginosa; Staphylococcus aureus.
Assay in all cases: ≥ marks a high value that may be exact or a test limit, other limits are often not marked, values filed in µg/mL are converted to µM
The subject of experiment [1] is Candida albicans ATCC 2002.
Experiment [2] relates to Staphylococcus aureus ATCC 43300.
Experiment [3] has as its system Staphylococcus aureus ATCC 25923.
For experiment [4], the system named is Escherichia coli ATCC 25922.
In experiment [5] the test system is Candida albicans ATCC 90028.
The subject of experiment [6] is Pseudomonas aeruginosa ATCC 27853.
For experiment [7], the system named is Staphylococcus aureus ATCC 29213.

Values after ≈ are worked out from the molar mass of the structure shown.

A word on the MIC: it is the lowest concentration that inhibits growth of the organism. Read a low MIC as inhibition by little substance. For `CC[C@H](C)[C@H](NC(=O)CNC(=O)[C@H](C)NC(=O)[C@H](C)NC(=O)[C@@H](NC(=O)[C@H](CCCCN)NC(=O)[C@H](CC(C)C)NC(=O)[C@@H](NC(=O)[C@@H]1CCCN1C(=O)CNC(=O)[C@@H](NC(=O)[C@@H](N)Cc1ccccc1)C(C)C)C(C)C)[C@@H](C)CC)C(=O)N[C@@H](CC(C)C)C(=O)N1CCC[C@H]1C(=O)N[C@H](C(=O)N[C@@H](C)C(=O)N[C@H](C(=O)N[C@H]1CSSC[C@@H](C(=O)O)NC(=O)[C@H](CCCCN)NC(=O)[C@H](CCCCN)NC(=O)[C@H](Cc2ccc(O)cc2)NC(=O)[C@H]([C@@H](C)CC)NC(=O)[C@H](CCCCN)NC1=O)[C@@H](C)CC)[C@@H](C)O` [FVGPVLKIAAGILPTAICKIYKKC], the MIC in experiment [1] came out at 0.919 µM (≈ 2.34 µg/mL); in experiment [2] it was 3.68 µM (≈ 9.37 µg/mL); in the experiment with Bacillus subtilis, 0.919 µM (≈ 2.34 µg/mL); in experiment [3], 0.459 µM (≈ 1.17 µg/mL).

On to `CC[C@H](C)[C@H](N)C(=O)N[C@@H](CC(N)=O)C(=O)N[C@@H](Cc1c[nH]c2ccccc12)C(=O)N[C@@H](CCCCN)C(=O)N[C@@H](CCCCN)C(=O)N[C@H](C(=O)N[C@@H](C)C(=O)N[C@@H](CO)C(=O)N[C@H](C(=O)NCC(=O)N[C@@H](CCCCN)C(=O)N[C@@H](CCC(=O)O)C(=O)N[C@H](C(=O)N[C@@H](CC(C)C)C(=O)N[C@@H](CCCCN)C(N)=O)C(C)C)[C@@H](C)CC)[C@@H](C)CC` [INWKKIASIGKEVLK], for which the MIC in the experiment with Escherichia coli is 100 µM (≈ 173 µg/mL); in the experiment with Bacillus subtilis, at least 100 µM.

Turning to `CC[C@H](C)[C@H](N)C(=O)N[C@@H](CC(N)=O)C(=O)N[C@@H](Cc1c[nH]c2ccccc12)C(=O)N[C@@H](CCCCN)C(=O)N[C@@H](CCCCN)C(=O)N[C@H](C(=O)N[C@@H](Cc1ccccc1)C(=O)N[C@@H](CCC(=O)O)C(=O)N[C@@H](CO)C(=O)N[C@H](C(=O)N[C@@H](CCCCN)C(=O)N[C@@H](CC(N)=O)C(=O)N[C@@H](CC(C)C)C(=O)N[C@H](C(N)=O)C(C)C)C(C)C)[C@@H](C)CC` [INWKKIFESVKNLV], the MIC in the experiment on Escherichia coli and against Bacillus subtilis was 10 µM (≈ 17.2 µg/mL) throughout.

Regarding `CC[C@H](C)[C@H](N)C(=O)N[C@@H](CC(N)=O)C(=O)N[C@@H](Cc1c[nH]c2ccccc12)C(=O)N[C@@H](CCCCN)C(=O)N[C@@H](CO)C(=O)N[C@H](C(=O)N[C@@H](Cc1ccccc1)C(=O)N[C@@H](CCC(=O)O)C(=O)N[C@@H](CCCCN)C(=O)N[C@H](C(=O)N[C@@H](CCCCN)C(=O)N[C@@H](CC(N)=O)C(=O)N[C@@H](CC(C)C)C(=O)N[C@H](C(N)=O)C(C)C)C(C)C)[C@@H](C)CC` [INWKSIFEKVKNLV], the MIC in the experiment with Escherichia coli and in the experiment with Bacillus subtilis was 15 µM (≈ 25.8 µg/mL) throughout.

In the case of `CC[C@H](C)[C@H](N)C(=O)N[C@@H](CC(N)=O)C(=O)N[C@@H](Cc1c[nH]c2ccccc12)C(=O)N[C@@H](CC(C)C)C(=O)N[C@@H](CCCN=C(N)N)C(=O)N[C@@H](CC(C)C)C(=O)NCC(=O)N[C@@H](CCCN=C(N)N)C(=O)N[C@@H](CCCN=C(N)N)C(=O)N[C@H](C(=O)N[C@@H](CC(C)C)C(=O)NCC(=O)N[C@@H](C)C(=O)N[C@@H](CC(C)C)C(N)=O)[C@@H](C)CC` [INWLRLGRRILGAL], the results for the MIC against Escherichia coli and against Bacillus subtilis were over 100 µM and 17.5 µM (≈ 28.9 µg/mL), respectively.

Take `CC(C)C[C@H](NC(=O)CNC(=O)[C@H](C)NC(=O)[C@H](CCCCN)NC(=O)[C@H](CC(C)C)NC(=O)[C@H](CCCCN)NC(=O)[C@H](C)NC(=O)[C@H](CC(C)C)NC(=O)CNC(=O)[C@H](C)NC(=O)[C@H](CCCCN)NC(=O)[C@H](Cc1c[nH]c2ccccc12)NC(=O)[C@H](CCCCN)NC(=O)[C@H](C)NC(=O)[C@H](CC(C)C)NC(=O)CNC(=O)[C@H](C)NC(=O)[C@H](CCCCN)NC(=O)[C@H](CC(C)C)NC(=O)[C@@H](N)CCCCN)C(=O)N[C@@H](C)C(N)=O` [KLKAGLAKWKAGLAKLKAGLA]: the results for the MIC with Escherichia coli, in the experiment with Pseudomonas aeruginosa and against Staphylococcus aureus were 15 µM (≈ 32 µg/mL), over 120 µM and 120 µM (≈ 256 µg/mL), respectively.

Regarding `CC[C@H](C)[C@H](NC(=O)[C@H](CCCN=C(N)N)NC(=O)[C@@H](N)CCCCN)C(=O)N[C@@H](C)C(=O)N[C@@H](CCC(N)=O)C(=O)N[C@@H](CCCN=C(N)N)C(=O)N[C@H](C(=O)N[C@@H](CCCCN)C(=O)N[C@@H](CC(=O)O)C(=O)N[C@@H](Cc1ccccc1)C(=O)N[C@@H](CC(C)C)C(=O)N[C@@H](CCCN=C(N)N)C(=O)O)[C@@H](C)CC` [KRIAQRIKDFLR], the MIC in experiment [4] was 3.24 µM (≈ 5 µg/mL); in experiment [5], at least 40 µM; in experiment [6], 10 µM (≈ 15.4 µg/mL); in [7], 20 µM (≈ 30.9 µg/mL).

For `CC[C@H](C)[C@H](NC(=O)[C@H](CCCN=C(N)N)NC(=O)[C@H](CCC(N)=O)NC(=O)[C@H](CCCCN)NC(=O)[C@@H](NC(=O)[C@H](CCCN=C(N)N)NC(=O)[C@@H](N)CCCCN)[C@@H](C)CC)C(=O)N[C@@H](CCCCN)C(=O)N[C@@H](CC(=O)O)C(=O)N[C@@H](Cc1ccccc1)C(=O)N[C@@H](CC(C)C)C(=O)N[C@@H](CCCN=C(N)N)C(=O)O` [KRIKQRIKDFLR], the MIC in [4] is 2.5 µM (≈ 4 µg/mL); in [5], 20 µM (≈ 32 µg/mL); in experiment [6], 5 µM (≈ 8 µg/mL); in experiment [7], 20 µM (≈ 32 µg/mL).

`CC[C@H](C)[C@H](NC(=O)[C@H](CO)NC(=O)[C@H](C)NC(=O)[C@@H](NC(=O)[C@H](CCCCN)NC(=O)[C@H](CCCCN)NC(=O)[C@H](Cc1c[nH]c2ccccc12)NC(=O)[C@@H](N)CC(N)=O)[C@@H](C)CC)C(=O)NCC(=O)N[C@@H](CCCCN)C(=O)N[C@@H](CCC(=O)O)C(=O)N[C@H](C(=O)N[C@@H](CC(C)C)C(=O)N[C@@H](CCCCN)C(=O)N[C@@H](C)C(=O)N[C@@H](CC(C)C)C(N)=O)C(C)C` [NWKKIASIGKEVLKAL]: the MIC in the experiment on Escherichia coli is 21 µM (≈ 37.7 µg/mL); against Bacillus subtilis, at least 46 µM.

Turning to `CC[C@H](C)[C@H](NC(=O)[C@H](C)NC(=O)[C@H](CCCN=C(N)N)NC(=O)[C@H](Cc1ccc(O)cc1)NC(=O)[C@H](CC(C)C)NC(=O)[C@H](CC(N)=O)NC(=O)[C@H](Cc1ccc(O)cc1)NC(=O)CNC(=O)[C@H](C)NC(=O)[C@@H](NC(=O)[C@@H](NC(=O)[C@@H](NC(=O)[C@H](CCCN=C(N)N)NC(=O)[C@@H](NC(=O)[C@@H](NC(=O)[C@@H](NC(=O)[C@@H]1CCCN1C(=O)[C@H](Cc1c[nH]c2ccccc12)NC(=O)[C@H](Cc1ccccc1)NC(=O)[C@H](CCCN=C(N)N)NC(=O)[C@H](CCCCN)NC(=O)[C@@H](NC(=O)[C@@H](N)CCCN=C(N)N)[C@@H](C)CC)C(C)C)C(C)C)[C@@H](C)CC)[C@@H](C)O)C(C)C)C(C)C)C(=O)N[C@@H](CCCCN)C(=O)N[C@@H](CCCCN)C(=O)O` [RIKRFWPVVIRTVVAGYNLYRAIKK], the MIC in experiment [4] came out at 1.15 µM (≈ 3.52 µg/mL); in experiment [1], 0.769 µM (≈ 2.34 µg/mL); with Bacillus subtilis, 1.54 µM (≈ 4.69 µg/mL); in experiment [3], 3.08 µM (≈ 9.38 µg/mL).

On to `CC[C@H](C)[C@H](NC(=O)[C@@H](NC(=O)[C@@H](NC(=O)[C@@H]1CCCN1C(=O)[C@H](Cc1c[nH]c2ccccc12)NC(=O)[C@H](Cc1ccccc1)NC(=O)[C@H](CCCN=C(N)N)NC(=O)[C@H](CCCCN)NC(=O)[C@@H](NC(=O)[C@@H](N)CCCN=C(N)N)[C@@H](C)CC)C(C)C)C(C)C)C(=O)N[C@@H](CCCN=C(N)N)C(=O)N[C@H](C(=O)N[C@H](C(=O)N[C@H](C(=O)N[C@@H](C)C(=O)NCC(=O)N[C@@H](Cc1ccc(O)cc1)C(=O)N[C@@H](CC(N)=O)C(=O)N[C@@H](CC(C)C)C(=O)N[C@@H](Cc1ccc(O)cc1)C(=O)O)C(C)C)C(C)C)[C@@H](C)O` [RIKRFWPVVIRTVVAGYNLY], for which the MIC in [4] is 61.2 µM (≈ 150 µg/mL); in experiment [1] it was at least 45.9 µM.
